For orientation: EC50 means the midpoint of the concentration-response curve.

Where only a bound is given, the exact number is not on record here.

S1P1, sequence (P21453 whole entry): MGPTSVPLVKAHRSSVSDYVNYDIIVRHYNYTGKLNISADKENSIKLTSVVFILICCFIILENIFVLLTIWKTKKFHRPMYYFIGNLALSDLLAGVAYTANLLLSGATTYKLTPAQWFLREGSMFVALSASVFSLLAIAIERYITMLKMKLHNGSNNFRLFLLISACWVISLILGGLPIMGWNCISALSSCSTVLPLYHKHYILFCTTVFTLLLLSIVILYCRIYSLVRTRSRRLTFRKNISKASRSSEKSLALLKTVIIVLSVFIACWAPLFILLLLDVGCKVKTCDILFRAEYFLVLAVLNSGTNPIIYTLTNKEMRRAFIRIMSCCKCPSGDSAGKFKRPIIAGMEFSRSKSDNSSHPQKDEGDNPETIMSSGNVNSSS

One experiment addresses S1P1 (Homo sapiens, UniProt P21453). The experiment can be described thus: CNG cAMP Assay (Assay 1). The experiment is classed as cell-based. Set-up: host or cells: HEK293 cells expressing the CNG channel. The note with it: footnote 1: Relative EC50 was measured, read-out: Assay 1 Relative EC50. The gist of the method: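 cAMP-gated CNG membrane-potential read-out (350/590 nm, T90/T0 ratio) in S1P1/CNG HEK293 cells after 90 min with compound plus NECA 500 nM, S1P 10 nM (EC95), Ro 20-1724 25 μM. Ten 3-fold points from 10 μM, 1.8% DMSO; percent activity vs NECA-only control gives EC50.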
As for `Cc1cc(Cl)c2nc(-c3nc(-c4ccc(NS(C)(=O)=O)cc4Cl)no3)cn2c1` [Example 270, N-{3-chloro-4-[5-(8-chloro-6-methylimidazo[1,2-a]pyridin-2-yl)-1,2,4-oxadiazol-3-yl]phenyl}methanesulfonamide], the half-maximal effective concentration (EC50) was 5 to 10 µM.

Staying with this experiment, now noted: read-out: Assay 1 EC50.
For the compound `O=c1[nH]c(Cc2ccc(-c3noc(-c4cn5cc(C(F)(F)F)cc(Cl)c5n4)n3)c(Cl)c2)no1` [Example 271, 3-[(3-chloro-4-{5-[8-chloro-6-(trifluoromethyl)imidazo[1,2-a]pyridin-2-yl]-1,2,4-oxadiazol-3-yl}phenyl)methyl]-1,2,4-oxadiazol-5(4H)-one], the EC50 lay in the range of 0.1 to 0.5 µM.

For `FC(F)(F)c1cc(Cl)c2nc(-c3nc(-c4ccccc4Cl)no3)cn2c1` [Example 273, 8-chloro-2-[3-(2-chlorophenyl)-1,2,4-oxadiazol-5-yl]-6-(trifluoromethyl)imidazo[1,2-a]pyridine], the half-maximal effective concentration (EC50) is ≤ 0.1 µM.

Take `O=C(O)[C@@H]1C[C@H](Oc2ccc(-c3noc(-c4cn5cc(C(F)(F)F)cc(Cl)c5n4)n3)c(Cl)c2)CN1` [Example 276, (4S)-4-[(3-chloro-4-{5-[8-chloro-6-(trifluoromethyl)imidazo[1,2-a]pyridin-2-yl]-1,2,4-oxadiazol-3-yl}phenyl)oxy]-L-proline]: the EC50 is ≤ 0.1 µM. Take `Fc1ccc(-c2noc(-c3cn4cc(C(F)(F)F)cc(Br)c4n3)n2)c(Cl)c1` [Example 281, 8-bromo-2-[3-(2-chloro-4-fluorophenyl)-1,2,4-oxadiazol-5-yl]-6-(trifluoromethyl)imidazo[1,2-a]pyridine]: the concentration for a half-maximal effect (EC50) fell in the range of 0.1 to 0.5 µM.

Turning to `FC(F)(F)c1cc(Cl)c2nc(-c3nc(-c4cnccc4C(F)(F)F)no3)cn2c1` [Example 290, 8-chloro-6-(trifluoromethyl)-2-{3-[4-(trifluoromethyl)pyridin-3-yl]-1,2,4-oxadiazol-5-yl}imidazo[1,2-a]pyridine], the EC50 fell in the range of 1 to 5 µM.

`N#Cc1cc(C(F)(F)F)cn2cc(-c3nc(-c4ccc(F)cc4Cl)no3)nc12` [Example 291, 2-[3-(2-chloro-4-fluorophenyl)-1,2,4-oxadiazol-5-yl]-6-(trifluoromethyl)imidazo[1,2-a]pyridine-8-carbonitrile]: the 50% effective concentration (EC50) is 0.1 to 0.5 µM. Regarding `O=C(O)Cn1ccc2c(-c3noc(-c4cn5cc(C(F)(F)F)cc(Cl)c5n4)n3)cccc21` [Example 293, (4-{5-[8-chloro-6-(trifluoromethyl)imidazo[1,2-a]pyridin-2-yl]-1,2,4-oxadiazol-3-yl}-1H-indol-1-yl)acetic acid], the EC50 lay within 0.5 to 1 µM.

The values are drawn from patent publication US20100160369A1, “S1P1 Agonists and Methods of Making And Using” (EXELIXIS, INC., priority 2008, published 2010).
